Assay results reported in paper PMC3479019, “Identification and functional analysis of gene cluster involvement in biosynthesis of the cyclic lipopeptide antibiotic pelgipeptin produced by Paenibacillus elgii” (BMC Microbiology, 2012).

Assays:
Assay in all cases: amino acid adenylation, pyrophosphate release, inorganic pyrophosphatase / malachite green, […] nm
Assay type in all cases: biochemical
Conditions in all cases: 5 mM ATP, 10 mM MgCl2, 6 mM amino acid, 100 mM NaCl, 50 mM Tris-HCl pH 7.5, 25 °C
PlpD A1 = target: T1, PlpD A1 (Paenibacillus elgii, UniProt I1Z6A2)
T1 construct: pET28a, E. coli BL21(DE3), Ni-purified, His-tag (C-terminal by primers, inferred); borders by primers plpD-A1-F/R, N-term MENILT, C-term GAEYE then LE-tag (translated from primers)
T1 sequence (I1Z6A2 446-978): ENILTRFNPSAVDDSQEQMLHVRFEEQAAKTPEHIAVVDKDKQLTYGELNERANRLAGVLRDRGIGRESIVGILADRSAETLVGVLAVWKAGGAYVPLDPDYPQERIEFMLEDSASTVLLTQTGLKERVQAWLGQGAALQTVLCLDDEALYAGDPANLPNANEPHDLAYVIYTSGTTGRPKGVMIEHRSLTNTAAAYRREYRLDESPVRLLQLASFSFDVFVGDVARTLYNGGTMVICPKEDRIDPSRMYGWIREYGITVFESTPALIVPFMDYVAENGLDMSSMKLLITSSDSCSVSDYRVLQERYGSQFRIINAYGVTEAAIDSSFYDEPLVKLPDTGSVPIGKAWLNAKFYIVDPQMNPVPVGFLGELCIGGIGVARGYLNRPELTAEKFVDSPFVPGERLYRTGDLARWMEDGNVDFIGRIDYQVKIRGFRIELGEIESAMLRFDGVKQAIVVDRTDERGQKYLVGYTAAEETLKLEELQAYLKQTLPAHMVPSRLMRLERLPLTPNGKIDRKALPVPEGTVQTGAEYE

PlpE A3 = target: T2, PlpE A3 (Paenibacillus elgii, UniProt I1Z6A3)
T2 construct: pET28a, E. coli BL21(DE3), Ni-purified, His-tag (C-terminal by primers, inferred); borders by primers plpE-A3-F/R, N-term MAAEQT, C-term ADYVA then KL-tag (translated from primers)
T2 sequence (I1Z6A3 2324-2843): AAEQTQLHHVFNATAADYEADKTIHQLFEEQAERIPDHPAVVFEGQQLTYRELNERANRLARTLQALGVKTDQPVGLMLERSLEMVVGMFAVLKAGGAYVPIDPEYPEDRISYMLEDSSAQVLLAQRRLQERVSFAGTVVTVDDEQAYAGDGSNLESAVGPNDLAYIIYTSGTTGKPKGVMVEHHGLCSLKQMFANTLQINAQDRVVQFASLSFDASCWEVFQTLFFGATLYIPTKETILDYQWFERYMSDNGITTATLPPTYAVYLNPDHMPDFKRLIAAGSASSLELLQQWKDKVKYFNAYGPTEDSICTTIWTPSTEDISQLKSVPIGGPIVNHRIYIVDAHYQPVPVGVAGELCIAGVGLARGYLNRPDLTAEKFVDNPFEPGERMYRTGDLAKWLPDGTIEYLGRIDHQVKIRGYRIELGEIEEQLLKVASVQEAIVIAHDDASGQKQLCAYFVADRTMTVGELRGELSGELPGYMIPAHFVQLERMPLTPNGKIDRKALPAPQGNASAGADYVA

PlpF A1 = target: T3, PlpF A1 (Paenibacillus elgii, UniProt I1Z6A4)
T3 construct: pET28a, E. coli BL21(DE3), Ni-purified, His-tag (N-terminal by primers, stop codon in reverse primer, inferred); borders by primers plpF-A1-F/R, N-term (AS)LSDSE, C-term TGLE (translated from primers)
T3 sequence (I1Z6A4 entry or part of it): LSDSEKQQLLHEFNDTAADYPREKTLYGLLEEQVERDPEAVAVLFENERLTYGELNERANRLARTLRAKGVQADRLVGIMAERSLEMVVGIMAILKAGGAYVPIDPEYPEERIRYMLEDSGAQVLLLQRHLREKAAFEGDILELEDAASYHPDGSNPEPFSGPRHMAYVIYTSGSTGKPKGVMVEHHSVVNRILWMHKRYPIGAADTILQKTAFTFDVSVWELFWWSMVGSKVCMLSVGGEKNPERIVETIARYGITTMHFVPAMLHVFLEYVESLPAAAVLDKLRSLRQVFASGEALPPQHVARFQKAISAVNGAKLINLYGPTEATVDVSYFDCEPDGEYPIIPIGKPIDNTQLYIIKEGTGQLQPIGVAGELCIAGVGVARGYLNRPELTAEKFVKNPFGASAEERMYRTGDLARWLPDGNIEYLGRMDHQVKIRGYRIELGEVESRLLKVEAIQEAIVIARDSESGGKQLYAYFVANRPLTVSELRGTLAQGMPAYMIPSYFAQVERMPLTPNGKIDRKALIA

## NCC[C@H](N)C(=O)O [L-Dab]
PlpD A1
  amino acid adenylation, pyrophosphate release, inorganic pyrophosphatase / malac: PlpD A1, PlpE A3, and Plp F A1 clearly exhibited the highest activity for L-Dab

## N[C@@H](Cc1ccccc1)C(=O)O [L-Phe]
PlpE A3
  amino acid adenylation, pyrophosphate release, inorganic pyrophosphatase / malac: clearly exhibited the highest activity for L-Dab, L-Phe, and L-Ser, respectively

## N[C@@H](CO)C(=O)O [L-Ser]
PlpF A1
  amino acid adenylation, pyrophosphate release, inorganic pyrophosphatase / malac: clearly exhibited the highest activity for L-Dab, L-Phe, and L-Ser, respectively
